pIC50: −log10 of the molar value.
Legend:
[1] = target: full-length activated BTK (wildtype) (Homo sapiens (Human), UniProt Q06187); assay: AlphaScreen assay, wild-type BTK; format: biochemical
[2] = target: full-length activated BTK mutant C481S (Homo sapiens (Human), UniProt Q06187, C481S); assay: AlphaScreen assay, BTK mutant C481S; format: biochemical; conditions: for inhibition at 10 µM: read-out: BTK-C481S % @ 10 uM, @ 10 uM
full-length activated BTK mutant C481S, sequence (Q06187 whole entry C481S): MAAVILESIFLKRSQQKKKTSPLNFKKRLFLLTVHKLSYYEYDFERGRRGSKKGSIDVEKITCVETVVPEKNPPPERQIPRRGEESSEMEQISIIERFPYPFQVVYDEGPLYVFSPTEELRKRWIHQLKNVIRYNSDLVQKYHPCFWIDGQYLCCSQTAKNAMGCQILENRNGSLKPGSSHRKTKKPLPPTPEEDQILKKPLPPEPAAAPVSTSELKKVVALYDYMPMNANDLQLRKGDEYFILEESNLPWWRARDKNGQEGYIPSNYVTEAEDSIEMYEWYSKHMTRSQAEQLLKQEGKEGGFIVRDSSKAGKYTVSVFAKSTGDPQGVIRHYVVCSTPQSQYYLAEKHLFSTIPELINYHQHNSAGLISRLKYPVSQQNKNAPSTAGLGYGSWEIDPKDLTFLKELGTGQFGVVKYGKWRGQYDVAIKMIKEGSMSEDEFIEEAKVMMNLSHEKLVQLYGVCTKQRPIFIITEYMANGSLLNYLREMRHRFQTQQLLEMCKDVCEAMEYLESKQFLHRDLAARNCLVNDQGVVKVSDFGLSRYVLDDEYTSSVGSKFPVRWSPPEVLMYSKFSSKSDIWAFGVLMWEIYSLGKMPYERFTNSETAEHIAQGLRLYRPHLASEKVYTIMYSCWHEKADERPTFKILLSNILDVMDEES

full-length activated BTK (wildtype), sequence (Q06187 whole entry): as the sequence (Q06187 whole entry C481S) above, with S481C counted along it

pIC50 [1] | pIC50 [2] | inhibition at 10 µM ([1]; read-out: BTK % @ 10 uM, @ 10 uM) [%] | inhibition at 10 µM [2] [%] | Compound
7.85 | 7.59 |  |  | O=C(Cc1ccccc1)Nc1ccc(C(=O)c2c[nH]c3ncnc(N[C@@H]4CC[C@@H](CO)OC4)c23)c(Cl)c1 [Compound I-639, N-(3-chloro-4-(4-(((3R,6S)-6-(hydroxymethyl)tetrahydro-2H-pyran-3-yl)amino)-7H-pyrrolo[2,3-d]pyrimidine-5-carbonyl)phenyl)-2-phenylacetamide]
7.16 | 6.69 |  |  | O=C(c1ccc(NC(=O)C2(c3ccccc3)CC2)cc1Cl)c1c[nH]c2ncnc(N[C@@H]3CC[C@@H](CO)OC3)c12 [Compound I-640, N-(3-chloro-4-(4-(((3R,6S)-6-(hydroxymethyl)tetrahydro-2H-pyran-3-yl)amino)-7H-pyrrolo[2,3-d]pyrimidine-5-carbonyl)phenyl)-1-phenylcyclopropane-1-carboxamide]
8.08 | 7.49 |  |  | O=C(COCc1ccccc1)Nc1ccc(C(=O)c2c[nH]c3ncnc(N[C@@H]4CC[C@@H](CO)OC4)c23)c(Cl)c1 [Compound I-641, 2-(benzyloxy)-N-(3-chloro-4-(4-(((3R,6S)-6-(hydroxymethyl)tetrahydro-2H-pyran-3-yl)amino)-7H-pyrrolo[2,3-d]pyrimidine-5-carbonyl)phenyl) acetamide]
6.60 | 6.69 |  |  | O=C(Nc1cccc(C(=O)c2c[nH]c3ncnc(N[C@@H]4CC[C@@H](CO)OC4)c23)c1)c1ccccc1 [Compound I-642, N-(3-(4-(((3R,6S)-6-(hydroxymethyl)tetrahydro-2H-pyran-3-yl)amino)-7H-pyrrolo[2,3-d]pyrimidine-5-carbonyl)phenyl)benzamide]
6.57 | 6.82 |  |  | O=C(Nc1cccc(C(=O)c2c[nH]c3ncnc(N[C@@H]4CC[C@@H](CO)OC4)c23)c1)c1ccccn1 [Compound I-643, N-(3-(4-(((3R,6S)-6-(hydroxymethyl)tetrahydro-2H-pyran-3-yl)amino)-7H-pyrrolo[2,3-d]pyrimidine-5-carbonyl)phenyl)picolinamide]
 |  | 58 | 44 | O=C(c1cccc(NC(=O)C2CCOCC2)c1)c1c[nH]c2ncnc(N[C@@H]3CC[C@@H](CO)OC3)c12 [Compound I-644, N-(3-(4-(((3R,6S)-6-(hydroxymethyl)tetrahydro-2H-pyran-3-yl)amino)-7H-pyrrolo[2,3-d]pyrimidine-5-carbonyl)phenyl)tetrahydro-2H-pyran-4-carboxamide]
6.13 |  |  | 81 | COCC(=O)Nc1cccc(C(=O)c2c[nH]c3ncnc(N[C@@H]4CC[C@@H](CO)OC4)c23)c1 [Compound I-645, N-(3-(4-(((3R,6S)-6-(hydroxymethyl)tetrahydro-2H-pyran-3-yl)amino)-7H-pyrrolo[2,3-d]pyrimidine-5-carbonyl)phenyl)-2-methoxyacetamide]
6.42 | 6.11 |  |  | O=C(c1ccc(N2CCCCC2)cc1Cl)c1c[nH]c2ncnc(N[C@@H]3CC[C@@H](CO)OC3)c12 [Compound I-646, (2-chloro-4-(piperidin-1-yl)phenyl)(4-(((3R,6S)-6-(hydroxymethyl)tetrahydro-2H-pyran-3-yl)amino)-7H-pyrrolo[2,3-d]pyrimidin-5-yl)methanone]
5.84 | 6.97 |  |  | O=C(c1ccc(N2CC3(COC3)C2)cc1Cl)c1c[nH]c2ncnc(N[C@@H]3CC[C@@H](CO)OC3)c12 [Compound I-647, (2-chloro-4-(2-oxa-6-azaspiro[3.3]heptan-6-yl)phenyl)(4-(((3R,6S)-6-(hydroxymethyl)tetrahydro-2H-pyran-3-yl)amino)-7H-pyrrolo[2,3-d]pyrimidin-5-yl)methanone]
6.14 | 6.09 |  |  | COCCOc1ccc(Cl)c(C(=O)c2c[nH]c3ncnc(N[C@@H]4CC[C@@H](CO)OC4)c23)c1 [Compound I-648, (2-chloro-5-(2-methoxyethoxy)phenyl)(4-(((3R,6S)-6-(hydroxymethyl)tetrahydro-2H-pyran-3-yl)amino)-7H-pyrrolo[2,3-d]pyrimidin-5-yl)methanone]
6.02 |  |  | 82 | COCCOc1cccc(C(=O)c2c[nH]c3ncnc(N[C@@H]4CC[C@@H](CO)OC4)c23)c1 [Compound I-649, (4-(((3R,6S)-6-(hydroxymethyl)tetrahydro-2H-pyran-3-yl)amino)-7H-pyrrolo[2,3-d]pyrimidin-5-yl)(3-(2-methoxyethoxy)phenyl)methanone]
6.69 | 6.49 |  |  | O=C(c1ccc(Nc2ccccc2)cc1Cl)c1c[nH]c2ncnc(N[C@@H]3CC[C@@H](CO)OC3)c12 [Compound I-650, (2-Chloro-4-(phenylamino)phenyl)(4-(((3R,6S)-6-(hydroxymethyl)tetrahydro-2H-pyran-3-yl)amino)-7H-pyrrolo[2,3-d]pyrimidin-5-yl)methanone]
6.48 | 6.64 |  |  | CNC(=O)c1ccc(Oc2ccc(C(=O)c3c[nH]c4ncnc(N[C@@H]5CC[C@@H](CO)OC5)c34)c(Cl)c2)cn1 [Compound I-651, 5-(3-chloro-4-(4-(((3R,6S)-6-(hydroxymethyl)tetrahydro-2H-pyran-3-yl)amino)-7H-pyrrolo[2,3-d]pyrimidine-5-carbonyl)phenoxy)-N-methyl picolinamide]
6.75 | 6.30 |  |  | COc1ccccc1C(=O)NCc1ccc(C(=O)c2c[nH]c3ncnc(N[C@@H]4CC[C@@H](CO)OC4)c23)cc1 [Compound I-652, N-(4-(4-(((3R,6S)-6-(hydroxymethyl)tetrahydro-2H-pyran-3-yl)amino)-7H-pyrrolo[2,3-d]pyrimidine-5-carbonyl)benzyl)-2-methoxybenzamide]
7.35 | 7.28 |  |  | CC(=O)N1C[C@H](Nc2ncnc3[nH]cc(C(=O)c4ccc(Oc5ccccc5)cc4Cl)c23)C[C@H]1CO [Compound I-655, 1-((2S,4R)-4-((5-(2-chloro-4-phenoxybenzoyl)-7H-pyrrolo[2,3-d]pyrimidin-4-yl)amino)-2-(hydroxymethyl)pyrrolidin-1-yl)ethan-1-one]
6.91 | 6.60 |  |  | CS(=O)(=O)N1C[C@H](Nc2ncnc3[nH]cc(C(=O)c4ccc(Oc5ccccc5)cc4Cl)c23)C[C@H]1CO [Compound I-656, (2-chloro-4-phenoxyphenyl)(4-(((3R,5S)-5-(hydroxymethyl)-1-(methylsulfonyl)pyrrolidin-3-yl)amino)-7H-pyrrolo[2,3-d]pyrimidin-5-yl)methanone]
6.63 | 6.08 |  |  | O=C(c1ccc(Oc2ccccc2)cc1Cl)c1c[nH]c2ncnc(NC[C@@H]3C[C@@H](CO)N(Cc4ccccc4)C3)c12 [Compound I-657, (4-((((3S,5S)-1-benzyl-5-(hydroxymethyl)pyrrolidin-3-yl)methyl)amino)-7H-pyrrolo[2,3-d]pyrimidin-5-yl)(2-chloro-4-phenoxyphenyl)methanone]
